The results in this text go back to EP0022634A1, “Acylated indole derivatives, processes for their preparation and pharmaceutical compositions and drugs comprising them” (TEIJIN LIMITED, priority 1979, dated 1981).

The structures appear in SMILES notation. Values after ≈ are worked out from the molar mass of the structure shown. Like-named read-outs stand apart in the source and are kept apart here.

Experiment [1] relates to platelet aggregation. The experiment can be described thus: in vitro platelet aggregation inhibiting activity (sodium arachidonate as aggregating agent). The settings on record: guinea pigs PRP, final concentration 0.1 millimole, minimum final concentration whose inhibiting rate exceeded 50 %. In kind it is cell-based. How it is done: The platelet aggregation inhibiting activities in vitro of test drugs including the acylated indole derivatives of this invention were assayed using guinea pigs PRP.
As an aggregating agent, sodium arachidonate having a final concentration of 0.1 millimole was used.
The citrated blood was centrifuged at 1000 rpm for 10 minutes at room temperature, and the supernatant liquid (PRP) was separated.
The resulting PRP was stored at room temperature, and used as early as possible. PRP stored for more than 4 hours was not used.
A compound having a free carboxylic acid as a residue, such as Indomethacin and Ibprofen, was dissolved in O.lM NaHC03 to provide a sodium salt solution having a concentration of 10 mg/ml. The solution was similarly diluted with physiological saline to prepare a solution of a test drug.
The solution was diluted with physiological saline to form a 1mM solution which was used in the test.
50 µℓ of physiological saline and 50 µℓ of the aggregating agent solution were added to 400 µℓ of PRP which had been warmed in a cuvette at 37°C in an aggregometer to aggregate the platelet. The aggregation curve was recorded for 3 minutes by an aggregometer (a product of Bryston Company). The maximum degree of aggregation in this platelet aggregation was defined as the maximum degree of aggregation in the blank.
Then, 50 µℓ of a 1mM solution of sodium arachidonate was added, and the platelet aggregation curve was recorded in the same way as in (1) above. From the curve, the maximum degree of aggregation was calculated, and the inhibiting rate was calculated in accordance with the following equation. Maximum degree of aggregation Inhibiting 100 - in the Ibprofen-added system 100 rate (%) Maximum degree of aggregation in the blank
If these inhibiting rates are not attained, the concentration of the solution of sodium arachidonate is not suitable, and therefore, its concentration should be re-adjusted, and the test shall be performed again.
50 µℓ of the test compound solution was added to 400 µℓ of PRP, and the mixture was pre-incubated in the same way as in(2) above. Then, 50 µℓ of the solution of sodium arachidonate having its concentration adjusted in (2) was added, and the aggregation curve was recorded for 3 minutes. The maximum degree of aggregation of platelet within this period was measured, and the rate of inhibition was calculated from the following equation. […] Maximum degree of aggregation Inhibiting _ 100 - in the drug-added system x 100 rate (%) Maximum degree of aggregation in the blank
For details of the in vitro platelet aggregation inhibiting test, see H. M. Davis, J. Phyllis, K. Paul and W. Terry: Thromb. […] Haemos.

For experiment [2], the system named is platelet aggregation. Description: extra vivo platelet aggregation inhibiting activity after oral administration, sodium arachidonate as aggregating agent. In kind it is in vivo, guinea pigs. The settings on record: Cavia porcellus, 0.03 mM sodium arachidonate; for inhibition at 10 mg/kg: oral dosage 10 mg/kg; for inhibition at 1 mg/kg: oral dosage 1 mg/kg. How it is done:
(§1) The platelet aggregation inhibiting activities extra vivo of drugs sampled at random were examined using guinea pigs.
(§2) The drugs were used dissolved in propylene glycol to a concentration of 1 mg/ml (when the dosage was 1 mg/kg), 10 mg/ml (when the dosage was 10 mg/kg), and 30 mg/ml (when the dosage was 30 mg/kg). The drugs were administered orally to male Hartley guinea pigs (three in a group) having a body weight of 300 to 350 g. Propylene glycol was administered to a control group.
(§3) One hour, or 4 hours after the administration, citrated blood was taken out from the subject by cardiac puncture.
(§4) The guinea pigs were caused to fast overnight before use.
(§5) The inhibiting rate of the test drugs was measured as follows: • 450 µℓ of PRP was put into a cuvette of an aggregometer, and then 50 µℓ of the aggregating agent was added. The aggregation curve was recorded for 3 minutes, and the maximum degree of aggregation was measured. As a blank, the maximum degree of aggregation of PRP of the group of guinea pigs to which propylene glycol had been administered was measured. The rate of inhibition was calculated from the following equation. [formula]
(§6) As the aggregating agent, 0.03 mM (final concentration sodium arachidonate and 5 µg/ml (final concentration) collagen floating solution were used.
For details of the extra vivo platelet aggregation inhibiting test, see Davis. H. M., Phyllis, J., Paul, K and Terry, W.: Thromb. […] Haemos.

Experiment [3] relates to platelet aggregation. The experiment can be described thus: extra vivo platelet aggregation inhibiting activity after oral administration, collagen as aggregating agent. In kind it is in vivo, guinea pigs. The settings on record: Cavia porcellus. How it is done:
The collagent floating solution made by Hormone Company of west Germany was diluted with physiological saline to a concentration of 100 µg/ml for use in the test.
as §1, §2, §3, §4, §5, §6
For details of the extra vivo platelet aggregation inhibiting test, see Davis. H. M., Phyllis, J., Paul, K and Terry, W.: Thromb. Res. 11, 217-226 (1977) and Anderson R. E. and Foulks J. G.: Thromb. Haemos. 36, 343-359 (1976).

[4] abbreviates: Cavia porcellus, Platelet, read-out: IC50.
Where [5] appears, read: blood taken 1 hour after administration, read-out: Rate of inhibition of platelet aggregation, Sodium arachidonate, After 1 hour.
[6] abbreviates: blood taken 4 hours after administration, read-out: Rate of inhibition of platelet aggregation, Sodium arachidonate, After 4 hours.
Setting [7] is: po, 1 h, read-out: Rate of inhibition of platelet aggregation, Collagen, After 1 hour.
The mark [8] stands for this setting: po, 4 h, read-out: Rate of inhibition of platelet aggregation, Collagen, After 4 hours.

Consider `CCC(CO)n1c(C)c(C(=O)c2ccccc2)c2ccccc21` (stereo not shown) [(101), 3-Benzoyl-1-(1-hydroxy-2-butyl)-2-methylindole], for which the IC50 (as a rule, the midpoint of a concentration-inhibition curve) in experiment [1] (setting [4]) is 0.1 µg/mL (≈ 0.325 µM). The inhibition (as a rule, how much of the control response was suppressed) at 10 mg/kg in experiment [2] (setting [5]) worked out at 99%; in experiment [2] (setting [6]) it was 99%; in experiment [3] (setting [7]), 100%; in experiment [3] (setting [8]) it was 100%.
On to `Cc1c(C(=O)c2ccccc2)c2ccccc2n1C(C)CCO` (stereo not drawn) [(105), 3-Benzoyl-l-(4-hydroxy-2-butyl)-2-methylindole], for which the IC50 in experiment [1] (setting [4]) is 0.075 µg/mL (≈ 0.244 µM). For the same molecule, the inhibition at 10 mg/kg in experiment [2] (setting [5]), in experiment [2] (setting [6]), in experiment [3] (setting [7]) and in experiment [3] (setting [8]) was 100% each time.
For `COc1ccc2c(c1)c(C(=O)c1ccccc1)c(C)n2C(C)CO` (stereo not shown) [(116), 3-benzoyl-1-(1-hydroxy-2-propyl)-5-methoxy-2-methylindole], in experiment [1] (setting [4]), the IC50 turned out to be 0.5 µg/mL (≈ 1.55 µM). Also, the inhibition at 10 mg/kg in experiment [2] (setting [5]) turned out to be 100%; in experiment [2] (setting [6]) it was 0.7%; in experiment [3] (setting [7]), 100%; in experiment [3] (setting [8]), 0%.
In the case of `Cc1c(C(=O)c2ccccc2)c2cc(O)ccc2n1C(C)CO` (stereo not shown) [(117), 3-Benzoyl-5-hydroxy-1-(1-hydroxy-2-propyl)-2-methylindole], the IC50 in experiment [1] (setting [4]) came out at 0.25 µg/mL (≈ 0.808 µM). The inhibition at 10 mg/kg stood at 100% in experiment [2] (setting [5]), 8.6% in experiment [2] (setting [6]), 72.1% in experiment [3] (setting [7]) and 2.2% in experiment [3] (setting [8]).
For the molecule `Cc1c(C(=O)c2ccccc2)c2ccccc2n1[C@H](C)CO` [(135), 3-Benzoyl-1-[1-hydroxy-2(R)-propyl]-2-methylindole], the IC50 in experiment [1] (setting [4]) was 0.025 µg/mL (≈ 0.0852 µM).
For `Cc1c(C(=O)c2ccccc2)c2ccccc2n1[C@@H](C)CO` [(136), 3-Benzoyl-1-(1-hydroxy-2(S)-propyl]-2-methylindole], the IC50 in experiment [1] (setting [4]) is 0.05 µg/mL (≈ 0.17 µM).
Turning to `CC(=O)OCC(C)n1c(C)c(C(=O)c2ccccc2)c2ccccc21` (stereo not shown) [(200), 1-(1-Acetoxy-2-propyl)-3-benzoyl-2-methylindole], the IC50 in experiment [1] (setting [4]) is 0.075 µg/mL (≈ 0.224 µM). The figures for the inhibition at 1 mg/kg in experiment [2] (setting [5]) and in experiment [2] (setting [6]) were 90% and 91.8%, respectively.
In the case of `CC(=O)OCCC(C)n1c(C)c(C(=O)c2ccccc2)c2ccccc21` (stereo not shown) [(201), 1-(4-acetoxy-2-butyl)-3-benzoyl-2-methylindole], in experiment [1] (setting [4]), the IC50 is 0.075 µg/mL (≈ 0.215 µM). The inhibition at 10 mg/kg in experiment [2] (setting [5]), in experiment [2] (setting [6]), in experiment [3] (setting [7]) and in experiment [3] (setting [8]) was 100% throughout.
Take `CCC(COC(C)=O)n1c(C)c(C(=O)c2ccccc2)c2ccccc21` (stereo not shown) [(205), 1-(1-acetoxy-2-butyl)-3-benzoyl-2-methylindole]: the IC50 in experiment [1] (setting [4]) worked out at 0.1 µg/mL (≈ 0.286 µM). The inhibition at 10 mg/kg in experiment [2] (setting [5]) was 100%; in experiment [2] (setting [6]), 85.3%; in experiment [3] (setting [7]) it was 100%; in experiment [3] (setting [8]), 93.8%.
As for `COCCC(C)n1c(C)c(C(=O)c2ccccc2)c2ccccc21` (stereo not shown) [(306), 3-Benzoyl-1-(4-methoxy-2-butyl)-2-methylindole], the IC50 in experiment [1] (setting [4]) turned out to be 0.25 µg/mL (≈ 0.778 µM). Moreover, the inhibition at 10 mg/kg in experiment [2] (setting [5]), in experiment [2] (setting [6]), in experiment [3] (setting [7]) and in experiment [3] (setting [8]) was 100% throughout.
With `COCC(C)n1c(C)c(C(=O)c2cccs2)c2ccccc21` (stereo not shown) [(315), 1-(1-Methoxy-2-propyl)-2-methyl-3-thenoylindole], in experiment [1], the IC50 lay within 0.01 to 0.1 µg/mL.
As for `COC[C@@H](C)n1c(C)c(C(=O)c2ccccc2)c2ccccc21` [(346), 3-Benzoyl-1-[1-methoxy-2(R)-propyl]-2-methylindole], the IC50 in experiment [1] (setting [4]) came out at 0.05 µg/mL (≈ 0.163 µM).
As for `COC[C@H](C)n1c(C)c(C(=O)c2ccccc2)c2ccccc21` [(347), 3-benzoyl-1-[1-methoxy-2(S)-propyl)-2-methylindole], the IC50 in experiment [1] (setting [4]) came to 0.075 µg/mL (≈ 0.244 µM).
Still for that read-out and setting: to `CSCC(C)n1c(C)c(C(=O)c2ccccc2)c2ccccc21` (stereo not shown) [(402), 3-Benzoyl-2-methyl-1-(1-methylthio-2-propyl)-indole] belongs 0.075 µg/mL (≈ 0.232 µM).
For `Cc1c(C(=O)c2ccccc2)c2ccccc2n1C(C)CCSc1ccccn1` (stereo not drawn) [(414), 3-Benzoyl-2-methyl-l-(4-(2-pyridylthio)-2-butyl]indole], the inhibition at 10 mg/kg in experiment [2] (setting [5]) and in experiment [2] (setting [6]) was 100% in each case.
Regarding `CCSCC(CC)n1c(C)c(C(=O)c2ccccc2)c2ccccc21` (stereo not shown) [(417), 3-Benzoyl-1-(1-ethylthio-2-butyl)-2-methylindole], the inhibition at 10 mg/kg in experiment [2] (setting [5]) turned out to be 100%; in experiment [2] (setting [6]), 37%; in experiment [3] (setting [7]) it was 100%; in experiment [3] (setting [8]), 100%.
Regarding `Cc1c(C(=O)c2ccccc2)c2ccccc2n1C(C)CCS` (stereo not shown) [(423), 3-Benzoyl-1-(4-mercapto-2-butyl)-2-methylindole], the inhibition at 10 mg/kg in experiment [2] (setting [5]), in experiment [2] (setting [6]), in experiment [3] (setting [7]) and in experiment [3] (setting [8]) was 100% throughout.
Regarding `Cc1c(C(=O)c2ccccc2)c2ccccc2n1C(C)C[S+]([O-])c1ccccc1` (stereo not shown) [(501), 1-(1-Benzenesulfinyl-2-propyl)-3-benzoyl-2-methylindole], the inhibition at 10 mg/kg in experiment [2] (setting [5]), in experiment [2] (setting [6]), in experiment [3] (setting [7]) and in experiment [3] (setting [8]) was 100% each time.
Regarding `CCC(C)n1c(C)c(C(=O)c2ccccc2)c2ccccc21` (stereo not shown) [(701), 3-Benzoyl-1-(2-butyl)-2-methylindole], the inhibition at 10 mg/kg in experiment [2] (setting [5]) and in experiment [2] (setting [6]) was 100% in each case.
In the case of `Cc1c(C(=O)c2ccccc2)c2ccccc2n1C(C)C(=O)O` (stereo not shown) [Comparison 1, reference compound], in experiment [1] (setting [4]), the IC50 is 50 µg/mL (≈ 163 µM).
Still for that read-out and setting: the result for `Cc1[nH]c2ccccc2c1C(=O)c1ccccc1` [Comparison 2, reference compound] reads 5 µg/mL (≈ 21.3 µM).
For `COCCn1c(C)c(C(=O)c2ccccc2)c2ccccc21` [Comparison 4, reference compound], the inhibition at 10 mg/kg in experiment [2] (setting [5]) came to 45.5%; in experiment [2] (setting [6]), 7.1%; in experiment [3] (setting [7]) it was 38%; in experiment [3] (setting [8]) it was 7.6%.
For the molecule `Cc1[nH]c2ccccc2c1C(=O)c1ccc(Cl)cc1` [Comparison 6, reference compound], the inhibition at 10 mg/kg in experiment [2] (setting [5]) came out at 12.3%; in experiment [2] (setting [6]), 6%; in experiment [3] (oral dosage 10 mg/kg, 5 µg/ml collagen floating solution, blood taken 1 hour after administration, read-out: Rate of inhibition of platelet aggregation, Collagen, After 1 hour) it was 36%; in experiment [3] (oral dosage 10 mg/kg, 5 µg/ml collagen floating solution, blood taken 4 hours after administration, read-out: Rate of inhibition of platelet aggregation, Collagen, After 4 hours), 28.9%.
